Read-outs that look alike come from different tables or passages of the source.
What was measured:
[1] = test system: pH2AX induction in HCT116 ATM-/- multicellular tumour spheroids; assay: Prodrug Radiation Sensitization in Multicellular Tumour Spheroids, inhibition of pH2AX induction following radiation; format: cell-based; details: Homo sapiens, HCT-116, 20 Gy
Protocol: Prodrug compounds were assayed to determine their potency in 3D multicellular spheroids in media maintained under 20% vs 5% oxygen. Multicellular tumour spheroids were grown to approximately 0.5 mm in diameter and irradiated with 20 Gy in combination with inhibitor test compounds to determine their potency using HCT 116 and FaDu cell lines. Experiments were carried out in 96 well plates containing 0.7 mls of MEM media containing 10% FBS and 10 mM glucose under 5% CO2 at 37° C. Following dilution of compounds 1:1000 from DMSO stocks, compounds were serially diluted from 10 μM down to 3.5 nM and 5-10 spheroids added. 96 well plates were constantly stirred to avoid spheroids settling during the course of the experiment. Endpoints were pDNA-PK (ser 2056) or pH2AX (ser 139) status in spheroid cryosections taken 1 or 2 hours following radiation and fixed immediately in formalin. Using tumour cell lines deficient in ATM improved the assay signal to noise and gH2AX readout. Using this assay prodrug activity could be compared in the more oxygenated outer spheroid layers versus less oxygenated hypoxic central cell layers.

[2] = target: T1, DNA-PK phosphorylation at Serine 2056 (Homo sapiens, UniProt P78527); assay: Cellular Assay for Inhibition of DNA-PK Phosphorylation at Serine 2056 in FaDu cells (sandwich ELISA, neocarzinostatin); format: cell-based; details: pSer2056 DNA-PK, Table 3
T1 construct: FaDu cells were purchased from ATCC; host or cells: FaDu
Protocol: FaDu cells were purchased from ATCC and maintained in MEM alpha medium (Life Technologies, cat. no. 12561) supplemented with 10% fetal bovine serum, and 1% GlutaMAX at 37° C. supplemented with 5% CO2. 50,000 cells were seeded to each well of a 96-well cell culture plate in 50 μL of culture medium and incubated for 16-24 hours. Three-fold serially diluted compounds were prepared in DMSO. Culture media was used to prepare compound treatments to 0.3% DMSO (dimethyl sulphoxide) content. Compound treatments were added to the cells for 1 hour prior incubation, followed by the addition of neocarzinostatin in fresh culture medium to 1 μg/mL final concentration for an additional 2 hours incubation to induce DNA DSBs (double-strand breaks). DMSO controls were incubated with fresh culture medium alone for the additional two hours incubation. The cells were then lysed and frozen at −20° C. Cell lysates were thawed on wet ice and protein concentrations quantified by BCA Protein Assay (Thermo #23225). Lysis buffer was used to normalize lysates by protein content and all lysates were then investigated by sandwich ELISA by means of DNA-PK-specific antibodies (Abcam ab44815: total DNA-PK; ab124918: phosphoserine-2056 DNA-PK) in sandwich ELISA format on the MSD S600MM platform (MesoScale Discovery). % inhibition was calculated for all data points: =1−(DATA_PT−AVERAGE(DMSO controls))/(AVERAGE(NCS controls)−AVERAGE(DMSO controls)). Logarithm of the molar concentration of compound was plotted against percent inhibition to calculate IC50 values, with curve fit settings for data fit to log(inhibitor) vs. normalized response—Variable slope using curve fit software (GraphPad Prism).

[3] = test system: FaDu cell line; assay: Prodrug Activation in Hypoxic Stirred Tumour Cell Suspensions; details: 10 μM, 4 hours
Protocol: Prodrug compounds were assayed to determine their stability and rate of activation in stirred cell suspensions under 0.2 vs 5% oxygen. Compounds were diluted 1:1000 from DMSO stocks to 10 μM final concentration in tumour cell suspensions (1% by cell volume) in MEM media containing 10% FBS, 10 mM glucose & 3.7 g/L sodium bicarbonate. Cell lines assayed included A253, A549, Detroit562, FaDu, HCT116, HEP G2, HT29, SCC25, SCC9, SiHa & TC32. Compounds and cells were then incubated for 4 hours under constant mixing at 37° C. under 5% CO2 and either 0.2 or 5% O2. Following the incubation period cellular activation of the compounds was assayed via MeOH extraction and HPLC quantification.

[4] = 5% O2, inner layers, read-out: Prodrug 5% O2 Inner layers EC50
[5] = 5% O2, outer layers, read-out: Prodrug 5% O2 Outer layers EC50
[6] = 20% O2, outer layers, read-out: Prodrug 20% O2 Outer layers EC50

SMILES: CN(C)CCOc1cnc(N[C@H]2CC[C@@H](Oc3nc(N4CCOCC4)cc4ncc(N(Cc5cnn(C)c5[N+](=O)[O-])S(C)(=O)=O)cc34)CC2)nc1 [LFA2075, N-[5-[4-[[5-[2-(dimethylamino)ethoxy]pyrimidin-2-yl]amino]cyclohexoxy]-7-morpholino-1,6-naphthyridin-3-yl]-N-[(1-methyl-5-nitro-pyrazol-4-yl)methyl]methanesulfonamide]
- EC50 [1, 4]: 0.01 to 0.5 µM
- EC50 [1, 5]: 0.5 to 1 µM
- EC50 [1, 6]: 1 to 10 µM
- IC50 [2]: 1 to 10 µM
- Fraction of prodrug converted to active form, Hypoxic 0.2% O2 [3]: B (B is 0.05 to 0.15)
- Fraction of prodrug converted to active form, Oxic 5% O2 [3]: B (B is 0.05 to 0.15)

SMILES: Cn1c(CN(c2cnc3cc(N4CCOCC4)nc(O[C@H]4CC[C@@H](Nc5cnc(C#N)cn5)CC4)c3c2)S(C)(=O)=O)cnc1[N+](=O)[O-] [LFA2103, N-[5-[4-[(5-cyanopyrazin-2-yl)amino]cyclohexoxy]-7-morpholino-1,6-naphthyridin-3-yl]-N-[(3-methyl-2-nitro-imidazol-4-yl)methyl]methanesulfonamide]
- EC50 [1, 4]: 0.01 to 0.5 µM
- EC50 [1, 5]: 1 to 10 µM
- EC50 [1, 6]: 10 to 100 µM
- IC50 [2]: 1 to 10 µM
- Fraction of prodrug converted to active form, Hypoxic 0.2% O2 [3]: B (B is 0.05 to 0.15)
- Fraction of prodrug converted to active form, Oxic 5% O2 [3]: D (D is 0 to 0.02)

SMILES: CS(=O)(=O)N(Cc1cnc([N+](=O)[O-])n1C1CC1)c1cnc2cc(N3CCOCC3)nc(O[C@H]3CC[C@@H](Nc4ncccn4)CC3)c2c1 [LFA2058, N-[(3-cyclopropyl-2-nitro-imidazol-4-yl)methyl]-N-[7-morpholino-5-[4-(pyrimidin-2-ylamino)cyclohexoxy]-1,6-naphthyridin-3-yl]methanesulfonamide]
- EC50 [1, 4]: 0.01 to 0.5 µM
- EC50 [1, 5]: 0.01 to 0.5 µM
- EC50 [1, 6]: 1 to 10 µM
- IC50 [2]: 1 to 10 µM
- Fraction of prodrug converted to active form, Hypoxic 0.2% O2 [3]: B (B is 0.05 to 0.15)
- Fraction of prodrug converted to active form, Oxic 5% O2 [3]: C (C is 0.02 to 0.05)

SMILES: Cn1c(CN(c2cnc3cc(N4CCOCC4)nc(O[C@H]4CC[C@@H](Nc5ccc(F)cn5)CC4)c3c2)S(C)(=O)=O)cnc1[N+](=O)[O-] [LFA2010, N-[5-[4-[(5-fluoro-2-pyridyl)amino]cyclohexoxy]-7-morpholino-1,6-naphthyridin-3-yl]-N-[(3-methyl-2-nitro-imidazol-4-yl)methyl]methanesulfonamide]
- EC50 [1, 4]: 0.01 to 0.5 µM
- EC50 [1, 5]: 0.5 to 1 µM
- EC50 [1, 6]: 1 to 10 µM
- IC50 [2]: 0.1 to 1 µM
- Fraction of prodrug converted to active form, Hypoxic 0.2% O2 [3]: B (B is 0.05 to 0.15)
- Fraction of prodrug converted to active form, Oxic 5% O2 [3]: C (C is 0.02 to 0.05)

SMILES: Cc1cc(C)nc(N[C@H]2CC[C@@H](Oc3nc(N4CCOCC4)cc4ncc(OCc5cnc([N+](=O)[O-])n5C)cc34)CC2)n1 [LFA2081, 4,6-dimethyl-N-[4-[[3-[(3-methyl-2-nitro-imidazol-4-yl)methoxy]-7-morpholino-1,6-naphthyridin-5-yl]oxy]cyclohexyl]pyrimidin-2-amine]
- EC50 [1, 4]: 0.5 to 1 µM
- EC50 [1, 5]: 1 to 10 µM
- EC50 [1, 6]: 1 to 10 µM
- IC50 [2]: 10 to 30 µM
- Fraction of prodrug converted to active form, Hypoxic 0.2% O2 [3]: B (B is 0.05 to 0.15)
- Fraction of prodrug converted to active form, Oxic 5% O2 [3]: B (B is 0.05 to 0.15)

SMILES: Cn1c(COc2cnc3cc(N4CCOCC4)nc(O[C@H]4CC[C@@H](Nc5ccccn5)CC4)c3c2)cnc1[N+](=O)[O-] [LFA2083, N-[4-[[3-[(3-methyl-2-nitro-imidazol-4-yl)methoxy]-7-morpholino-1,6-naphthyridin-5-yl]oxy]cyclohexyl]pyridin-2-amine]
- EC50 [1, 4]: 0.01 to 0.5 µM
- EC50 [1, 5]: 1 to 10 µM
- EC50 [1, 6]: 1 to 10 µM
- IC50 [2]: 10 to 30 µM
- Fraction of prodrug converted to active form, Hypoxic 0.2% O2 [3]: A (A is 0.15 to 1)
- Fraction of prodrug converted to active form, Oxic 5% O2 [3]: C (C is 0.02 to 0.05)

SMILES: CC(Oc1cnc2cc(N3CCOCC3)nc(O[C@H]3CC[C@@H](N(C)c4ncccn4)CC3)c2c1)c1cnc([N+](=O)[O-])n1C (stereo partly shown) [LFA2063, N-methyl-N-[4-[[3-[1-(3-methyl-2-nitro-imidazol-4-yl)ethoxy]-7-morpholino-1,6-naphthyridin-5-yl]oxy]cyclohexyl]pyrimidin-2-amine]
- EC50 [1, 4]: 0.01 to 0.5 µM
- EC50 [1, 5]: 1 to 10 µM
- EC50 [1, 6]: 1 to 10 µM
- IC50 [2]: 10 to 30 µM
- Fraction of prodrug converted to active form, Hypoxic 0.2% O2 [3]: A (A is 0.15 to 1)
- Fraction of prodrug converted to active form, Oxic 5% O2 [3]: B (B is 0.05 to 0.15)

SMILES: CN1CCN(c2cnc(N[C@H]3CC[C@@H](Oc4nc(N5CCOCC5)cc5ncc(OCc6cnc([N+](=O)[O-])n6C)cc45)CC3)nc2)CC1 [LFA2065, N-[4-[[3-[(3-methyl-2-nitro-imidazol-4-yl)methoxy]-7-morpholino-1,6-naphthyridin-5-yl]oxy]cyclohexyl]-5-(4-methylpiperazin-1-yl)pyrimidin-2-amine]
- EC50 [1, 4]: 0.01 to 0.5 µM
- EC50 [1, 5]: 1 to 10 µM
- EC50 [1, 6]: 1 to 10 µM
- IC50 [2]: 10 to 30 µM
- Fraction of prodrug converted to active form, Hypoxic 0.2% O2 [3]: A (A is 0.15 to 1)
- Fraction of prodrug converted to active form, Oxic 5% O2 [3]: C (C is 0.02 to 0.05)

SMILES: Cc1cc(C#N)nc(N[C@H]2CC[C@@H](Oc3nc(N4CCOCC4)cc4ncc(OCc5cnc([N+](=O)[O-])n5C)cc34)CC2)n1 [LFA2093, 6-methyl-2-[[4-[[3-[(3-methyl-2-nitro-imidazol-4-yl)methoxy]-7-morpholino-1,6-naphthyridin-5-yl]oxy]cyclohexyl]amino]pyrimidine-4-carbonitrile]
- EC50 [1, 4]: 1 to 10 µM
- EC50 [1, 5]: 1 to 10 µM
- EC50 [1, 6]: 1 to 10 µM
- IC50 [2]: 10 to 30 µM
- Fraction of prodrug converted to active form, Hypoxic 0.2% O2 [3]: B (B is 0.05 to 0.15)
- Fraction of prodrug converted to active form, Oxic 5% O2 [3]: B (B is 0.05 to 0.15)

SMILES: CC(NS(=O)(=O)c1cnc2cc(N3CCOCC3)nc(O[C@H]3CC[C@@H](Nc4ncc(OCCN5CCN(C)CC5)cn4)CC3)c2c1)c1cnc([N+](=O)[O-])n1C (stereo partly shown) [LFA2090, N-[1-(3-methyl-2-nitro-imidazol-4-yl)ethyl]-5-[4-[[5-[2-(4-methylpiperazin-1-yl)ethoxy]pyrimidin-2-yl]amino]cyclohexoxy]-7-morpholino-1,6-naphthyridine-3-sulfonamide]
- EC50 [1, 4]: 10 to 100 µM
- EC50 [1, 5]: 10 to 100 µM
- EC50 [1, 6]: 10 to 100 µM
- IC50 [2]: 10 to 30 µM
- Fraction of prodrug converted to active form, Hypoxic 0.2% O2 [3]: D (D is 0 to 0.02)
- Fraction of prodrug converted to active form, Oxic 5% O2 [3]: D (D is 0 to 0.02)

SMILES: Cc1cc(C)nc(N[C@H]2CC[C@@H](Oc3nc(N4CCOCC4)cc4ncc(OC(C)c5cnc([N+](=O)[O-])n5C)cc34)CC2)n1 (stereo partly shown) [LFA2082, 4,6-dimethyl-N-[4-[[3-[1-(3-methyl-2-nitro-imidazol-4-yl)ethoxy]-7-morpholino-1,6-naphthyridin-5-yl]oxy]cyclohexyl]pyrimidin-2-amine]
- EC50 [1, 4]: 0.01 to 0.5 µM
- EC50 [1, 5]: 1 to 10 µM
- EC50 [1, 6]: 1 to 10 µM
- IC50 [2]: 10 to 30 µM
- Fraction of prodrug converted to active form, Hypoxic 0.2% O2 [3]: A (A is 0.15 to 1)
- Fraction of prodrug converted to active form, Oxic 5% O2 [3]: C (C is 0.02 to 0.05)

SMILES: Cn1c(Cn2nnc(-c3cnc4cc(N5CCOCC5)nc(O[C@H]5CC[C@@H](Nc6ncccn6)CC5)c4c3)n2)cnc1[N+](=O)[O-] [LFA121, N-[4-[[3-[2-[(3-Methyl-2-nitro-imidazol-4-yl)methyl]tetrazol-5-yl]-7-morpholino-1,6-naphthyridin-5-yl]oxy]cyclohexyl]pyrimidin-2-amine]
- EC50 [1, 4]: 0.5 to 1 µM
- EC50 [1, 5]: 1 to 10 µM
- EC50 [1, 6]: 1 to 10 µM
- Fraction of prodrug converted to active form, Hypoxic 0.2% O2 [3]: A (A is 0.15 to 1)
- Fraction of prodrug converted to active form, Oxic 5% O2 [3]: B (B is 0.05 to 0.15)

SMILES: Cn1c(Cn2cnnc2-c2cnc3cc(N4CCOCC4)nc(OC4CCC(Nc5ncccn5)CC4)c3c2)cnc1[N+](=O)[O-] (stereo not shown) [LFA135, N-[4-[[3-[4-[(3-Methyl-2-nitro-imidazol-4-yl)methyl]-1,2,4-triazol-3-yl]-7-morpholino-1,6-naphthyridin-5-yl]oxy]cyclohexyl]pyrimidin-2-amine]
- EC50 [1, 4]: 1 to 10 µM
- EC50 [1, 5]: 1 to 10 µM
- EC50 [1, 6]: 1 to 10 µM
- Fraction of prodrug converted to active form, Hypoxic 0.2% O2 [3]: D (D is 0 to 0.02)
- Fraction of prodrug converted to active form, Oxic 5% O2 [3]: D (D is 0 to 0.02)
